From PubChem BioAssay (NCI)
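Compound exposure: 48 hours, 5 concentrations, 96-well plates. TGI: total growth inhibition.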

Experiments:
Test in all cases: NCI tumour cell line growth inhibition, 48 h
786-0 renal = test system: 786-0 renal
A498 renal = test system: A498 renal
A549 NSCLC = test system: A549 NSCLC
ACHN renal = test system: ACHN renal
CAKI-1 renal = test system: CAKI-1 renal
CCRF-CEM leukemia = test system: CCRF-CEM leukemia
COLO 205 colon = test system: COLO 205 colon
DLD-1 colon = test system: DLD-1 colon
DMS 114 small cell lung = test system: DMS 114 small cell lung
DMS 273 small cell lung = test system: DMS 273 small cell lung
EKVX NSCLC = test system: EKVX NSCLC
HCC-2998 colon = test system: HCC-2998 colon
HCT-116 colon = test system: HCT-116 colon
HL-60(TB) leukemia = test system: HL-60(TB) leukemia
HOP-18 NSCLC = test system: HOP-18 NSCLC
HOP-62 NSCLC = test system: HOP-62 NSCLC
HOP-92 NSCLC = test system: HOP-92 NSCLC
HT29 colon = test system: HT29 colon
IGROV1 ovarian = test system: IGROV1 ovarian
K-562 leukemia = test system: K-562 leukemia
KM12 colon = test system: KM12 colon
KM20L2 colon = test system: KM20L2 colon
LOX IMVI melanoma = test system: LOX IMVI melanoma
LXFL 529 NSCLC = test system: LXFL 529 NSCLC
M14 melanoma = test system: M14 melanoma
MALME-3M melanoma = test system: MALME-3M melanoma
MOLT-4 leukemia = test system: MOLT-4 leukemia
NCI-H226 lung = test system: NCI-H226 lung
NCI-H23 lung = test system: NCI-H23 lung
NCI-H460 lung = test system: NCI-H460 lung
NCI-H522 lung = test system: NCI-H522 lung
OVCAR-3 ovarian = test system: OVCAR-3 ovarian
OVCAR-4 ovarian = test system: OVCAR-4 ovarian
OVCAR-5 ovarian = test system: OVCAR-5 ovarian
OVCAR-8 ovarian = test system: OVCAR-8 ovarian
RPMI-8226 leukemia = test system: RPMI-8226 leukemia
RXF 393 renal = test system: RXF 393 renal
RXF-631 renal = test system: RXF-631 renal
SF-268 CNS = test system: SF-268 CNS
SF-295 CNS = test system: SF-295 CNS
SF-539 CNS = test system: SF-539 CNS
SK-MEL-28 melanoma = test system: SK-MEL-28 melanoma
SK-OV-3 ovarian = test system: SK-OV-3 ovarian
SN12C renal = test system: SN12C renal
SNB-19 CNS = test system: SNB-19 CNS
SNB-75 CNS = test system: SNB-75 CNS
SNB-78 CNS = test system: SNB-78 CNS
SR leukemia = test system: SR leukemia
SW-620 colon = test system: SW-620 colon
TK-10 renal = test system: TK-10 renal
U251 CNS = test system: U251 CNS
UACC-257 melanoma = test system: UACC-257 melanoma
UACC-62 melanoma = test system: UACC-62 melanoma
UO-31 renal = test system: UO-31 renal
HCT-15 colon = test system: HCT-15 colon
M19-MEL melanoma = test system: M19-MEL melanoma
MCF7 breast = test system: MCF7 breast
NCI/ADR-RES ovarian = test system: NCI/ADR-RES ovarian
P388 leukemia = test system: P388 leukemia
P388/ADR leukemia = test system: P388/ADR leukemia
SK-MEL-2 melanoma = test system: SK-MEL-2 melanoma
SK-MEL-5 melanoma = test system: SK-MEL-5 melanoma
SN12K1 renal = test system: SN12K1 renal
XF 498 CNS = test system: XF 498 CNS

Oc1oc(C(=C2N=c3ccccc3=N2)c2ccc(Cl)cc2)c(O)c1-c1ccc(Cl)cc1
TGI (786-0 renal): > 100 µM
TGI (A498 renal): 9.06 µM
TGI (A549 NSCLC): > 100 µM
TGI (ACHN renal): 14.7 µM
TGI (CAKI-1 renal): 7.14 µM
TGI (CCRF-CEM leukemia): > 100 µM
TGI (COLO 205 colon): 3.01 µM
TGI (DLD-1 colon): > 100 µM
TGI (DMS 114 small cell lung): 5.52 µM
TGI (DMS 273 small cell lung): 19.1 µM
TGI (EKVX NSCLC): 7.41 µM
TGI (HCC-2998 colon): 20.8 µM
TGI (HCT-116 colon): 9.14 µM
TGI (HL-60(TB) leukemia): 5.02 µM
TGI (HOP-18 NSCLC): > 100 µM
TGI (HOP-62 NSCLC): 4.51 µM
TGI (HOP-92 NSCLC): 4.47 µM
TGI (HT29 colon): 10.7 µM
TGI (IGROV1 ovarian): > 100 µM
TGI (K-562 leukemia): > 100 µM
TGI (KM12 colon): 15.9 µM
TGI (KM20L2 colon): 10.2 µM
TGI (LOX IMVI melanoma): 10.1 µM
TGI (LXFL 529 NSCLC): 12.2 µM
TGI (M14 melanoma): 18 µM
TGI (MALME-3M melanoma): 7.72 µM
TGI (MOLT-4 leukemia): 7.53 µM
TGI (NCI-H226 lung): 6.81 µM
TGI (NCI-H23 lung): 4.34 µM
TGI (NCI-H460 lung): > 100 µM
TGI (NCI-H522 lung): 6.18 µM
TGI (OVCAR-3 ovarian): > 100 µM
TGI (OVCAR-4 ovarian): > 100 µM
TGI (OVCAR-5 ovarian): 6.89 µM
TGI (OVCAR-8 ovarian): > 100 µM
TGI (RPMI-8226 leukemia): 8.12 µM
TGI (RXF 393 renal): 6.8 µM
TGI (RXF-631 renal): > 100 µM
TGI (SF-268 CNS): > 100 µM
TGI (SF-295 CNS): 16.8 µM
TGI (SF-539 CNS): 9.91 µM
TGI (SK-MEL-28 melanoma): 33.7 µM
TGI (SK-OV-3 ovarian): 11.3 µM
TGI (SN12C renal): > 100 µM
TGI (SNB-19 CNS): > 100 µM
TGI (SNB-75 CNS): 13 µM
TGI (SNB-78 CNS): > 100 µM
TGI (SR leukemia): 12.6 µM
TGI (SW-620 colon): 68.3 µM
TGI (TK-10 renal): 11.5 µM
TGI (U251 CNS): 22.9 µM
TGI (UACC-257 melanoma): 6.45 µM
TGI (UACC-62 melanoma): 15.2 µM
TGI (UO-31 renal): 8.08 µM

O[C@H]1[C@H](O)[C@@H](O)CN2CC[C@H](O)[C@H]12
TGI (A498 renal): > 100 µM
TGI (A549 NSCLC): > 100 µM
TGI (CAKI-1 renal): > 100 µM
TGI (CCRF-CEM leukemia): > 100 µM
TGI (COLO 205 colon): > 100 µM
TGI (DLD-1 colon): > 100 µM
TGI (DMS 114 small cell lung): > 100 µM
TGI (DMS 273 small cell lung): > 100 µM
TGI (EKVX NSCLC): > 100 µM
TGI (HCC-2998 colon): > 100 µM
TGI (HCT-116 colon): > 100 µM
TGI (HCT-15 colon): > 100 µM
TGI (HL-60(TB) leukemia): > 39.8 µM
TGI (HOP-18 NSCLC): > 100 µM
TGI (HOP-62 NSCLC): > 100 µM
TGI (HOP-92 NSCLC): > 100 µM
TGI (HT29 colon): > 100 µM
TGI (IGROV1 ovarian): > 100 µM
TGI (K-562 leukemia): > 100 µM
TGI (KM12 colon): > 100 µM
TGI (KM20L2 colon): > 100 µM
TGI (LOX IMVI melanoma): > 100 µM
TGI (M19-MEL melanoma): > 79.4 µM
TGI (MALME-3M melanoma): > 100 µM
TGI (MCF7 breast): > 100 µM
TGI (MOLT-4 leukemia): > 100 µM
TGI (NCI-H226 lung): > 100 µM
TGI (NCI-H23 lung): > 100 µM
TGI (NCI-H460 lung): > 100 µM
TGI (NCI-H522 lung): > 100 µM
TGI (NCI/ADR-RES ovarian): > 100 µM
TGI (OVCAR-3 ovarian): > 100 µM
TGI (OVCAR-4 ovarian): > 100 µM
TGI (OVCAR-5 ovarian): > 100 µM
TGI (OVCAR-8 ovarian): > 100 µM
TGI (P388 leukemia): > 100 µM
TGI (P388/ADR leukemia): > 100 µM
TGI (RPMI-8226 leukemia): > 100 µM
TGI (RXF 393 renal): > 100 µM
TGI (SF-268 CNS): > 100 µM
TGI (SF-295 CNS): > 100 µM
TGI (SF-539 CNS): > 100 µM
TGI (SK-MEL-2 melanoma): > 100 µM
TGI (SK-MEL-28 melanoma): > 100 µM
TGI (SK-MEL-5 melanoma): > 100 µM
TGI (SK-OV-3 ovarian): > 100 µM
TGI (SN12C renal): > 100 µM
TGI (SN12K1 renal): > 100 µM
TGI (SNB-19 CNS): > 100 µM
TGI (SNB-75 CNS): > 100 µM
TGI (SNB-78 CNS): > 100 µM
TGI (SW-620 colon): > 100 µM
TGI (U251 CNS): > 100 µM
TGI (UACC-257 melanoma): > 100 µM
TGI (UACC-62 melanoma): > 100 µM
TGI (UO-31 renal): > 100 µM
TGI (XF 498 CNS): > 100 µM
